Values joined by “and” are separate entries in the source; they are usually repeats but may differ in a detail not shown here. Identical values can stand only once.
Key:
[1] = Evaluation of excretion and half-life for Testosterone following intramusculary administration of testosterone doses.; assay type: ADME, organism-based; conditions: human, in vivo, im; dosed compound id 32, dosed compound name TESTOSTERONE, gender male, tissue Plasma
[2] = test system: Homo sapiens; assay: Mean steady-state pharmacokinetic parammeters for Testosterone evaluated on day 30 following multiple topical administration of Testosterone gel to adult male subjetcs with testosterone levels <= 300ng/dL.; assay type: ADME, organism-based; parameters: dose 100 mg, dose 50 mg, route topical; conditions: in vivo, topical_or_ocular, dosed compound id 32, dosed compound name TESTOSTERONE, gender male, regimen Once daily, tissue Serum; for Cavg: route topical

C[C@]12CC[C@H]3[C@@H](CCC4=CC(=O)CC[C@@]43C)[C@@H]1CC[C@@H]2O [TESTOSTERONE]
half-life [1]: 10 to 100 min
Cavg ([2]; dose 50 mg): 365 ng/dL
Cavg ([2]; dose 100 mg): 612 ng/dL
Cmax [2]: 538 ng/dL and 897 ng/dL
